“And” between values parts separate entries of the source, which are not always exact repeats. Equal entries are not always repeated. Where two headings read alike, the source gives them in different places. Marks after values point to notes of the source that are not given here. Ends that are not written are not given here.
How the values were obtained:
[1] = in vivo; details: Sprague Dawley, rat, iv, 10 ug/kg, Plasma Concentration
Description: (§1) Pharmacokinetic parameters were determined for the following 5 different extended GLP-1 peptides:
(§2) Parameters were determined following a single intravenous dose of 10 μg/kg in four different rats.

[2] = rat, in vivo, iv, 10 ug/kg
Description: as §1, §2

[3] = Dog hyperglycemic clamp study, GLP-1 peptide concentration; parameters: species or system dogs; details: in vivo, iv
Description: Several different extended and non-extended GLP-1 peptides were tested for activity in a hyperglycemic clamp study in dogs. Glucose was infused for 200 minutes to maintain constant levels. For the first 80 minutes dogs were infused intravenously with vehicle to establish a baseline insulin concentration. For the next 60 minutes, GLP-1 peptides were administered at a rate of 1 pmol/kg/min. For the final 60 minutes the infusion rate of each GLP-1 compound was increased to 3 pmol/kg/min. Blood samples were taken periodically for the determination of insulin and GLP-1 peptide concentrations. Insulin change values were calculated as the difference between the value at time t and the average value during the last 20 minutes of the control period (60-80) minutes and are presented in Table 3. Areas under the insulin change curves were calculated using the trapezoidal rule over the last 30 minutes of each infusion period. Values listed are the means±standard error of the mean (SEM).

[4] = Pharmacokinetics after single intravenous dose in rats; details: single i.v. 10 μg/kg; for level at 5 min / level at 0.25 h / level at 0.5 h / level at 1 h / level at 2 h: Sprague Dawley, plasma, Plasma Concentration; for level at 1 h: 60 min; for AUC0-last / Cl / Cmax / Vss / t½ / AUC(0-t) / clearance / Vd / half-life: Sprague Dawley rats; for AUC(0-t): AUC0-last; for clearance: Cl; for Vd: Vss; for half-life: t½
Description: as §1, §2

[5] = infusion rate 1 pmol/kg/min i.v., dog hyperglycemic clamp, after 60 minutes of infusion, mean ± SEM, read-out: Compound Concentration (t = 60′)
[6] = infusion rate 3 pmol/kg/min i.v., dog hyperglycemic clamp, after 60 minutes of infusion, mean ± SEM, read-out: Compound Concentration (t = 60′)
[7] = rat, iv, 10 ug/kg, 5 min, Mean of 4 rats
[8] = rat, iv, 10 ug/kg, 15 min, Mean of 4 rats
[9] = rat, iv, 10 ug/kg, 30 min, Mean of 4 rats
[10] = rat, iv, 10 ug/kg, Mean of 4 rats (values below LLOQ taken as zero)
[11] = rat, in vivo, iv, 10 ug/kg, Mean of 4 rats
[12] = rat, in vivo, iv, 10 ug/kg, individual rats
[13] = rat, in vivo, iv, 10 ug/kg, Cmax, Mean of 4 rats
[14] = rat, iv, 10 ug/kg, 5 min, individual rats
[15] = rat, iv, 10 ug/kg, 15 min, individual rats
[16] = rat, iv, 10 ug/kg, 30 min, individual rats
[17] = rat, iv, 10 ug/kg, 120 min, individual rats
[18] = rat, in vivo, iv, 10 ug/kg, Cmax, individual rats
[19] = rat, iv, 10 ug/kg, individual rats

| Compound | level at time molar at 1 h ([3]; dog, 1 pmol/kg/min) | level at time molar at 1 h ([3]; dog, 3 pmol/kg/min) | Plasma Concentration ([4]; 120 min, individual rats) | level at 5 min [4, 7] | level at 0.25 h [4, 8] | level at 0.5 h [4, 9] | level at 1 h [4, 10] | AUC0-last ([4]; individual rats) | Cl ([4]; individual rats) | Cmax ([4]; individual rats) | Vss ([4]; individual rats) | t½ ([4]; individual rats) | AUC(0-t) [4, 11] | AUC(0-t) [4, 12] | clearance [4, 11] | clearance [4, 12] | Cmax [4, 13] | Vd [4, 11] | half-life [4, 11] | further results |
| --- | --- | --- | --- | --- | --- | --- | --- | --- | --- | --- | --- | --- | --- | --- | --- | --- | --- | --- | --- | --- |
| HVEGTFTSDWSSYLEEQAAKEFIAWLIKGRGSSGAPPPS [Compound 5] |  |  |  |  |  |  |  |  |  |  |  |  |  |  |  |  |  |  |  | level at 5 min [1]: 35.9 ng/mL; level at 0.25 h [1]: 16.1 ng/mL; level at 2 h [1]: < 0.15 ng/mL; AUC(0-t) ([2]; AUC0-last): 12.5 ng·h/mL; clearance ([2]; Cl): 13.4 mL/min/kg; Cmax ([2]; Cmax): 35.9 ng/mL; Vd ([2]; Vss): 0.179 L/kg; half-life ([2]; t½): 11.9 min |
| HVEGTFTSDVSSYLEEQAVKEFIAWLIKGGPSSGAPPPRG [SEQ ID NO:48] | 0.227 ± 0.04 nM | 1.09 ± 0.106 nM |  |  |  |  |  |  |  |  |  |  |  |  |  |  |  |  |  |  |
| HVEGTFTSDVSSYLEEQAVKEFIAWLIKGGPSSGAPPPS [SEQ ID NO:42] | 0.276 ± 0.036 nM | 1.11 ± 0.139 nM |  |  |  |  |  |  |  |  |  |  |  |  |  |  |  |  |  |  |
| HVEGTFTSDVSSYLEEQAVKEFIAWLIKGRGSSGAPPPS [SEQ ID NO:35] | 0.267 ± 0.031 nM | 1.04 ± 0.103 nM |  |  |  |  |  |  |  |  |  |  |  |  |  |  |  |  |  |  |
| HVEGTFTSDVSSYLEEQAAKEFIAWLIKGGPSSGDPPPS [Compound 2] |  |  | <150 ^a pg/mL | 17.3 ng/mL | 6.82 ng/mL | 2.95 ng/mL | 1.05 ng/mL | 312.2 ng·min/mL and 430.0 ng·min/mL and 409.1 ng·min/mL | 32.0 mL/min/kg and 23.3 mL/min/kg and 24.4 mL/min/kg | 9.8 ng/mL and 16.9 ng/mL and 21.4 ng/mL and 21.1 ng/mL | 0.9739 L/kg and 0.3557 L/kg and 0.2833 L/kg and 0.3134 L/kg | 35.8 min and 12.3 min and 10.6 min and 14.4 min | 6.93 ng·h/mL | 8.55 ng·h/mL | 24.8 mL/min/kg | 19.5 mL/min/kg | 17.3 ng/mL | 0.482 L/kg | 18.3 min | level at time molar at 1 h [3, 5]: 0.204 ± 0.024 nM; level at time molar at 1 h [3, 6]: 0.755 ± 0.072 nM |
| HVEGTFTSDVSSYLEEQAAKEFIAWLIKGGPSSGDPPPS-NH2 [Compound 1] |  |  | <150 ^a pg/mL | 23.5 ng/mL | 9.61 ng/mL | 3.1 ng/mL | 0.554 ng/mL | 478.8 ng·min/mL and 448.5 ng·min/mL and 469.4 ng·min/mL | 20.9 mL/min/kg and 22.3 mL/min/kg and 21.3 mL/min/kg | 24.1 ng/mL and 22.8 ng/mL and 22.4 ng/mL | 0.2463 L/kg and 0.2657 L/kg and 0.2704 L/kg | 10.1 min and 10.9 min | 7.92 ng·h/mL | 8.41 ng·h/mL | 21.1 mL/min/kg | 19.8 mL/min/kg | 23.5 ng/mL | 0.264 L/kg | 11 min | level at time molar at 1 h [3, 5]: 0.268 ± 0.045 nM; level at time molar at 1 h [3, 6]: 0.977 ± 0.135 nM; Plasma Concentration ([4]; 30 min, individual rats): 3119 pg/mL; level at 5 min [4, 14]: 24.6 ng/mL; level at 0.25 h [4, 15]: 10 ng/mL; level at 0.5 h [4, 16]: 3.12 ng/mL; level at 2 h [4, 17]: < 0.15 ng/mL; Cmax [4, 18]: 24.6 ng/mL; Vd [4, 12]: 0.273 L/kg; half-life [4, 12]: 13.1 min |
| HVEGTFTSDVSSYLEEQAAKEFIAWLVKGRGSSGAPPPS [Compound 3] |  |  | <150 ^a pg/mL | 23.2 ng/mL | 8.81 ng/mL | 3.44 ng/mL | 0.657 ng/mL | 465.6 ng·min/mL and 492.5 ng·min/mL and 409.1 ng·min/mL | 21.5 mL/min/kg and 20.3 mL/min/kg and 24.4 mL/min/kg | 22.7 ng/mL and 24.3 ng/mL and 21.1 ng/mL | 0.2805 L/kg and 0.2624 L/kg and 0.3134 L/kg | 11.7 min and 12.0 min and 14.4 min | 7.96 ng·h/mL | 7.78 ng·h/mL | 21 mL/min/kg | 21.4 mL/min/kg | 23.3 ng/mL | 0.277 L/kg | 12.1 min | Plasma Concentration ([4]; 15 min, individual rats): 8467 pg/mL; level at 5 min [4, 14]: 23.6 ng/mL; level at 0.25 h [4, 15]: 8.6 ng/mL; level at 0.5 h [4, 16]: 3 ng/mL; level at 1 h [4, 19]: 0.566 ng/mL; level at 2 h [4, 17]: < 0.15 ng/mL; Cmax [4, 18]: 23.6 ng/mL; Vd [4, 12]: 0.263 L/kg; half-life [4, 12]: 11.6 min |
| CC[C@H](C)[C@H](NC(=O)[C@H](Cc1ccccc1)NC(=O)[C@H](CCC(=O)O)NC(=O)[C@H](CCCCN)NC(=O)[C@H](C)NC(=O)[C@H](C)NC(=O)[C@H](CCC(N)=O)NC(=O)CNC(=O)[C@H](CCC(=O)O)NC(=O)[C@H](CC(C)C)NC(=O)[C@H](Cc1ccc(O)cc1)NC(=O)[C@H](CO)NC(=O)[C@H](CO)NC(=O)[C@@H](NC(=O)[C@H](CC(=O)O)NC(=O)[C@H](CO)NC(=O)[C@@H](NC(=O)[C@H](Cc1ccccc1)NC(=O)[C@@H](NC(=O)CNC(=O)[C@H](CCC(=O)O)NC(=O)[C@@H](NC(=O)[C@@H](N)Cc1c[nH]cn1)C(C)C)[C@@H](C)O)[C@@H](C)O)C(C)C)C(=O)N[C@@H](C)C(=O)N[C@@H](Cc1c[nH]c2ccccc12)C(=O)N[C@@H](CC(C)C)C(=O)N[C@H](C(=O)N[C@@H](CCCCN)C(=O)NCC(=O)N[C@@H](CCCNC(=N)N)C(=O)NCC(=O)N[C@@H](CO)C(=O)N[C@@H](CO)C(=O)NCC(=O)N[C@@H](C)C(=O)N1CCC[C@H]1C(=O)N1CCC[C@H]1C(=O)N1CCC[C@H]1C(=O)N[C@@H](CO)C(=O)O)C(C)C [Compound 4] |  |  | <150 ^a pg/mL | 23.6 ng/mL | 9.86 ng/mL | 3.18 ng/mL | 0.636 ng/mL | 486.7 ng·min/mL and 424.9 ng·min/mL and 461.5 ng·min/mL | 20.5 mL/min/kg and 23.5 mL/min/kg and 21.7 mL/min/kg | 24.9 ng/mL and 20.0 ng/mL and 24.0 ng/mL | 0.2511 L/kg and 0.3159 L/kg and 0.2492 L/kg | 11.9 min and 11.2 min and 11.0 min | 8.05 ng·h/mL | 9.33 ng·h/mL | 20.9 mL/min/kg | 17.9 mL/min/kg | 23.6 ng/mL | 0.269 L/kg | 11.5 min | Plasma Concentration ([4]; 5 min, individual rats): 24853 pg/mL; level at 5 min [4, 14]: 25.4 ng/mL; level at 0.25 h [4, 15]: 12.1 ng/mL; level at 0.5 h [4, 16]: 4.37 ng/mL; level at 1 h [4, 19]: 0.869 ng/mL; level at 2 h [4, 17]: < 0.15 ng/mL; Cmax [4, 18]: 25.4 ng/mL; Vd [4, 12]: 0.259 L/kg; half-life [4, 12]: 12 min |
| HVEGTFTSDVSSYLEEQAVKEFIAWLIKGGPSSGAPPPSH [SEQ ID NO:43] | 0.306 ± 0.02 nM | 1.06 ± 0.034 nM |  |  |  |  |  |  |  |  |  |  |  |  |  |  |  |  |  |  |
| HVEGTFTSDVSSYLEEQAAKEFIAWLIKGGPSSGAPPPS [SEQ ID NO:55] | 0.246 ± 0.017 nM | 0.766 ± 0.046 nM |  |  |  |  |  |  |  |  |  |  |  |  |  |  |  |  |  |  |
| HVEGTFTSDVSSYLEEQAVKEFIAWLIKGGPSSGAPPPS-NH2 [SEQ ID NO:13] | 0.366 ± 0.059 nM | 1.32 ± 0.211 nM |  |  |  |  |  |  |  |  |  |  |  |  |  |  |  |  |  |  |
